Here are results for 19 compounds from BindingDB's records for patent WO2025064535 (Deep Apple Therapeutics, 2025).

The target in assay [1] is T1, Mas-related G-protein coupled receptor member X2 (Homo sapiens, UniProt Q96LB1).
T1 sequence (Q96LB1 whole entry): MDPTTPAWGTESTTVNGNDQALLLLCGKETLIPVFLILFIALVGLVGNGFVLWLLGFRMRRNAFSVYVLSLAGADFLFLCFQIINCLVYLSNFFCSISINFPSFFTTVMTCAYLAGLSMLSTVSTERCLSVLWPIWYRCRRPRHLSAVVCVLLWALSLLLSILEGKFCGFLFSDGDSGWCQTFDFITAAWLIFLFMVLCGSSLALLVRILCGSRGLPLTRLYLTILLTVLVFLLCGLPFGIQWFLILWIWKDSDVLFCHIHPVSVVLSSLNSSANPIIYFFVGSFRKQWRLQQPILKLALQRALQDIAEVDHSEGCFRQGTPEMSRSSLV
The experiment in a line: MRGPRX2 Activity Assay. The protocol:
FlpIn TRex-MRGPRX2-HEK293 cells (herein TRex-MRPGRX2-HEK) stably transfected to express human MRGPRX2 were maintained at 37 °C with 5% CO2 and grown in DMEM supplemented with 10% FBS, 1% L-Glutamate, 1% penicillin/streptomycin, 100ug/mL Hygromycin B, and 15 µg/mL Blasticidin. GOI (MRGPRX2) expression was induced with 100ng/mL of Doxycycline 18-24 hours prior to experiment, in flask. On the day of experiment, cells were lifted with TripLE Express and seeded in 384-well white walled opaque bottomed, assay plates, at 8,000 cells per well in 5 µL freshly made assay buffer (HBSS, 20 mM HEPES, 0.1% BSA and 10 mM LiCl). Compounds solubilized in 100% DMSO at 30 mM were serially diluted (1:4) first in 100% DMSO, and an intermediate plate of assay buffer was used to establish a final top concentration of 30 µM (in assay plate). Final DMSO concentration was kept constant at 1% across assay plates. Cortistatin-14, at 30 mM stock concentration was solubilized in HBSS + 0.1% BSA, stored at -20°C in 5 µL aliquots and discarded after one freeze-thaw cycle. […] Antagonist equilibrium was established with 30 minutes preincubation, followed by no wash, direct addition, and stimulation of agonist for 1 hour at 37 °C / 5% CO2. IP-1 standards and HTRF detection reagents were added according to the IP-one Gq kit protocol purchased from CisBio (part number 62IPAPEJ). The plate was read on an EnVision XCite plate reader. The HTRF ratio was then calculated from raw data (channel1/channel2 ×10,000) and analyzed using either GraphPad Prism or a custom Python script to calculate IC50 using Log[Antagonist] vs. response (4 parameter) nonlinear regression.

In assay [2] the target is T1, Mas-related G-protein coupled receptor member X2. The assay is described as follows: LAD2 Degranulation Assay (Protocol 2). The protocol:
LAD-2 cells were maintained at 37 °C with 5% CO2 and grown in complete StemPro-34 media supplemented with 1% L-Glutamate, 1% penicillin/streptomycin, and 250 ng/mL human SCF. 18-24 hours prior to experiment, LAD-2 cells were collected and transferred to growth media without SCF. […] For dose-response assays, compounds solubilized in 100% DMSO at 30 mM were serially diluted (1:3) first in 100% DMSO, and 2 intermediate dilutions with assay buffer were used to establish a final top concentration of 3 ^M (in assay plate). […] Final DMSO concentration was kept constant at 0.1% across plates for all assays. Cortistatin-14 at 30 mM stock concentration was solubilized in HBSS + 0.1% BSA, stored at -20°C in 5 ^L aliquots and discarded after one freeze-thaw cycle. Final concentration of agonist used in both dose-response and single point assays was 0.5 ^M, prepared in assay buffer. Antagonist equilibrium was established with 2 h preincubation, followed by no wash, direct addition, and stimulation of agonist for 30 minutes at 37 °C. For detection of ^-hexosaminidase activity, assay plates were centrifuged and 5 ^L of cell-free supernatant from each assay well was transferred to a black-walled black-bottomed 384-well plate. Substrate solution (1 mM 4-Methylumbelliferyl N-acetyl-β-D-glucosaminide in citrate buffer, pH=4.5, 15 ^l) was added to each well and plates were incubated for 1 hour at 37 °C. […] Background-subtracted data was analyzed using either GraphPad Prism or a custom Python script to calculate IC50 using either Log[Antagonist] vs. response (4 parameter) nonlinear regression (dose-response assays).

Assay [3] shares this target. The assay is described as follows: LAD2 Degranulation Assay (Protocol 1). The protocol:
LAD-2 cells were maintained at 37 °C with 5% CO2 and grown in complete StemPro-34 media supplemented with 1% L-Glutamate, 1% penicillin/streptomycin, and 250 ng/mL human SCF. On the day of experiment, cells were collected by centrifugation and seeded in 384-well assay plates, at 4,000 cells per well in 10 ^l freshly made assay buffer (10 mM HEPES, 130 mM NaCl, 5 mM KCl, 1.8 mM CaCl2, 1.0 mM MgCl2, 5.6 mM glucose, 0.1% BSA, pH = 7.40). For dose-response assays, compounds solubilized in 100% DMSO at 30 mM were serially diluted (1:3) first in 100% DMSO, and 2 intermediate dilutions with assay buffer were used to establish a final top concentration of 3 ^M (in assay plate). Final DMSO concentration was kept constant at 0.1% across plates for all assays. Cortistatin-14 at 30 mM stock concentration was solubilized in HBSS + 0.1% BSA, stored at -20°C in 5 ^L aliquots and discarded after one freeze-thaw cycle. Final concentration of agonist used in both dose-response and single point assays was 1 ^M, prepared in assay buffer. Antagonist equilibrium was established with 30 minute preincubation, followed by no wash, direct addition, and stimulation of agonist for 30 minutes at 37 °C. For detection of ^-hexosaminidase activity, assay plates were centrifuged and 5 ^l of cell-free supernatant from each assay well was transferred to a black-walled black-bottomed 384-well plate. Substrate solution (1 mM 4-Methylumbelliferyl N-acetyl-β-D-glucosaminide in citrate buffer, pH=4.5, 15 ^l) was added to each well and plates were incubated for 1 hour at 37 °C. […] Background-subtracted data was analyzed using either GraphPad Prism or a custom Python script to calculate IC50 using either Log[Antagonist] vs. response (4 parameter) nonlinear regression (dose-response assays).

On to `C[C@@H](C(=O)Nc1nc2cc3c(cc2s1)CCC3)N1CCC(F)(F)[C@H](c2ccc(=O)[nH]c2)C1` [WO2025064535, Compound 28], for which the IC50 in assay [1] was 18 nM; in assay [2] it was 144 nM.

Take `C[C@@H](C(=O)Nc1nc2cc3c(cc2s1)OCCO3)N1CCC(F)(F)[C@@H](c2ccc(=O)[nH]c2)C1` [WO2025064535, Compound 29]: the IC50 in assay [1] stood at 8.6 nM; in assay [2], 20 nM.

As to `C[C@@H](C(=O)Nc1nc2cc3c(cc2s1)OC(F)(F)O3)N1CCC(F)(F)[C@H](c2ccc(=O)[nH]c2)C1` [WO2025064535, Compound 32], the figures for the half-inhibitory concentration (IC50) in assay [1] and in assay [2] were 15 nM and 27 nM, respectively.

With `C[C@@H](C(=O)Nc1nc2cc3c(cc2s1)OC(F)(F)O3)N1CCC(F)(F)[C@@H](c2c[nH]c(=O)cn2)C1` [WO2025064535, Compound 34], the values for the IC50 in assay [1] and in assay [2] were 14 nM and 52 nM, respectively.

In the case of `C[C@@H](C(=O)Nc1nc2cc3c(cc2s1)OC(F)(F)O3)N1CC[C@H](F)[C@@H](c2cc[n+]([O-])cc2)C1` [WO2025064535, Compound 38], the IC50 worked out at 32 nM in assay [1] and 72 nM in assay [2].

For `C[C@@H](C(=O)Nc1nc2cc3c(cc2s1)OCCO3)N1CCC(F)(F)[C@H](c2c[nH]c(=O)cn2)C1` [WO2025064535, Compound 41], the IC50 in assay [1] amounted to 5.9 nM; in assay [2] it was 23 nM.

As to `C[C@@H](C(=O)Nc1nc2cc3c(cc2s1)OC(F)(F)O3)N1CCC(F)(F)[C@H](c2c[nH]c(=O)c([C@@H](O)CO)c2)C1` [WO2025064535, Compound 43], the IC50 came out at 11 nM in assay [1] and 7.4 nM in assay [2].

As for `C[C@@H](C(=O)Nc1nc2cc3c(cc2s1)OC(F)(F)O3)N1CCC[C@@H](c2cc[n+]([O-])cc2)C1` [WO2025064535, Compound 49], the results for the IC50 in assay [1] and in assay [2] were over 30000 nM and over 3000 nM, respectively.

Turning to `C[C@@H](C(=O)Nc1nc2cc3c(cc2s1)OC(F)(F)O3)N1CCC(F)(F)[C@H](c2cc[n+]([O-])c([C@H](O)CO)c2)C1` [WO2025064535, Compound 54], the half-inhibitory concentration (IC50) was found to be 7.8 nM in assay [1] and 6.6 nM in assay [2].

As to `C[C@H](C(=O)Nc1nc2cc3c(cc2s1)OCO3)N1CCC(F)(F)[C@@H](c2cc[n+]([O-])cc2)C1` [WO2025064535, Compound 81], the half-inhibitory concentration (IC50) in assay [3] was 12 nM; in assay [1] it was 3.7 nM.

Turning to `C[C@@H](C(=O)Nc1nc2cc3c(cc2s1)OC(F)(F)O3)N1CCC(F)(F)[C@H](c2c[nH]c(=O)c(CN)c2)C1` [WO2025064535, Compound 85], the IC50 in assay [3] amounted to 130 nM; in assay [1], 36 nM; in assay [2], 82 nM.

Turning to `CNCc1cc([C@H]2CN([C@@H](C)C(=O)Nc3nc4cc5c(cc4s3)OC(F)(F)O5)CCC2(F)F)c[nH]c1=O` [WO2025064535, Compound 86], the half-inhibitory concentration (IC50) was over 3000 nM in assay [3] and over 30000 nM in assay [1].

With `CNCc1cc([C@@H]2CN([C@@H](C)C(=O)Nc3nc4cc5c(cc4s3)OC(F)(F)O5)CCC2(F)F)c[nH]c1=O` [WO2025064535, Compound 87], the IC50 in assay [3] worked out at 223 nM; in assay [1], 41 nM.

Regarding `C[C@@H](C(=O)Nc1nc2cc3c(cc2s1)OC(F)(F)O3)N1CCC(F)(F)[C@@H](c2c[nH]c(=O)c(CO)c2)C1` [WO2025064535, Compound 88], the figures for the IC50 in assay [3] and in assay [1] were over 3000 nM and 1940 nM, respectively.

Consider `C[C@@H](C(=O)Nc1nc2cc3c(cc2s1)OC(F)(F)O3)N1CCC(F)(F)[C@H](c2c[nH]c(=O)c(CO)c2)C1` [WO2025064535, Compound 89], for which the IC50 in assay [3] came out at 215 nM; in assay [1], 30 nM; in assay [2], 66 nM.

As for `C[C@@H](C(=O)Nc1nc2cc3c(cc2s1)OC(F)(F)O3)N1CCC(F)(F)[C@@H](c2c[nH]c(=O)c(CO)n2)C1` [WO2025064535, Compound 90], the IC50 is over 3000 nM in assay [3] and over 17300 nM in assay [1].

Turning to `C[C@@H](C(=O)Nc1nc2cc3c(cc2s1)OC(F)(F)O3)N1CCC(F)(F)[C@H](c2c[nH]c(=O)c(CO)n2)C1` [WO2025064535, Compound 91], the concentration for half-maximal inhibition (IC50) was determined as 233 nM in assay [3], 36 nM in assay [1] and 68 nM in assay [2].

For `CNCc1cc([C@@H]2CN([C@@H](C)C(=O)Nc3nc4cc5c(cc4s3)OC(F)(F)O5)CCC2(F)F)cc[n+]1[O-]` [WO2025064535, Compound 102], the results for the concentration for half-maximal inhibition (IC50) in assay [3] and in assay [1] were 346 nM and 87 nM, respectively.

For `C[C@@H](C(=O)Nc1nc2cc3c(cc2s1)CCC3)N1CCC(F)(F)[C@H](c2c[nH]c(=O)c(CO)c2)C1` [WO2025064535, Compound 107], the IC50 in assay [3] was 586 nM; in assay [1], 49 nM; in assay [2], 101 nM.

For orientation: IC50 means the concentration needed to halve the response being measured.
